Test results from patent US8148385B2, “Substituted [1,2,3] triazolo[4,5-d]pyrimidine derivatives as ADP P2Y12 receptor antagonists” (Janssen Pharmaceutica N.V., priority 2006, dated 2012).

Assays:
[1] = system: washed platelets; assay: In vitro platelet aggregation; type: cell-based; settings: Homo sapiens, washed platelets from healthy volunteers, agonist (ADP) at 60-70% aggregation, % inhibition of control ADP response
Method: Platelet aggregation studies were performed according to a published method (Bednar, B., Condra, C., Gould, R. J., and Connolly, T. M., Throm. Res., 77:453-463 (1995). Platelet-rich plasma (PRP) concentrates prepared from healthy volunteers who were aspirin free for at least 7 days by venipuncture using ACD-A as anticoagulant was purchased from Biological Specialties, Inc. (Colmar, Pa.). PRP was centrifuged at 730 g for 15 min. The platelet pellet was washed twice in CGS buffer (13 mM sodium citrate, 30 mM glucose, 120 mM NaCl, pH 6.5) containing 1 μ/ml apyrase (grade V, Sigma-Aldrich, St. Louis, Mo.), 1 mM EGTA, and resuspended in Tyrode's buffer (140 mM NaCl, 2.7 mM KCl, 12 mM NaHCO3, 0.76 mM Na2HPO4, 5.5 mM dextrose, 5.0 mM Hepes, 0.2% BSA, pH 7.4). The platelets were diluted to 3×10^8 platelets/ml and kept >45 min at 37° C. before use. 105 μl of washed platelets, 2 mM CaCl2 and […] of fibrinogen were added to a 96-well microliter plate.
Platelet aggregation was initiated by the addition of serial concentrations of ADP (BioData Corp. Horsham, Pa.). Buffer was added to one set of control wells. The assay plate was stirred constantly and intermittently placed in a microplate reader (Softmax, Molecular Devices, Menlo Park, Calif.) to read optical density (650 nm) at 0 and 5 minutes after the addition of the compound solutions. Aggregation was calculated as the decrease in optical density between the time 0- and 5-min measurements and expressed as % of aggregation. For the inhibition assay, platelet aggregation was conducted as described above except for compound additions. Test compounds were prepared in 100% DMSO and stored.
On the day of the assay, test compounds were diluted in the buffer containing 3% of DMSO as a 10× working solution. 15 μl of compound solutions were added to 105 μl of platelets 5 min prior to the addition of CaCl2 and fibrinogen.

[2] = target: T1, P2Y12 receptor (Homo sapiens, UniProt Q9H244); assay: Whole cell receptor binding assay for 2-MeS[3H]-ADP; settings: whole HEK 293 cells transfected with P2Y12; 2-MeS[3H]-ADP 3 nM; 30 min at 37° C.; read-out: Inhibition of Receptor Binding IC50
T1 construct: expressed in transfected cells
Method: A whole cell-binding assay for 2-MeS [^3H]-ADP (Custom synthesized by Amersham BioScience, Piscataway, N.J.) to the P2Y12 receptor was performed.
A P2Y12 cDNA containing hygromycin resistant gene was transfected in HEK 293 cells. A stable cell line was obtained by a cloning selection method. The cells were cultured in DMEM supplemented with 10% FBS and 1× of p/s.
On the day of the assay, the cells were harvested and resuspended in 0.25% BSA-DMEM and adjusted to a cell concentration of 1.6×10^6/ml. […] The reaction was then incubated for 30 min at 37° C. and stopped by adding cold DMEM. […] The plates were dyed in a 37° C. oven for 1-2 hours and 50 μl of MicroScint-20 (PerkinElmer) was added to each well. The radioactivity was measured using a TOPCOUNT beta counter (Packard).

[3] = target: T2, ADP P2Y12 (Homo sapiens, UniProt Q9H244); assay: FLIPR calcium assay transducing Gi-coupled signaling to the Gq pathway (inhibition of calcium mobilization); type: cell-based; settings: HEK 293 cells co-transfected with P2Y12 and Gqi5, ADP at EC60-70 dose
T2 construct: expressed in transfected cells
Text: A FLIPR Calcium Assay Transducing Gi-Coupled Signaling to the Gq Pathway
The ADP P2Y12 subtype is a Gi coupled GPCR, which mediates inhibition of adenylate cyclase leading to decreased cAMP while Gq proteins primarily activate phospholipase C, which stimulates inositol-1,4,5-triphosphate (IP3) formation and a subsequent increase in intracellular Ca^2+ concentration, which can be easily measured by FLIPR. Prior to the development of a method to convert a Gi coupled GPCR signaling to a Gq coupled GPCR signaling, a significant barrier existed for the functional testing and screening of Gi coupled GPCRs. One popular method, GTPγS migration, is slow, produces a small signal and generates radioactive waste. The discovery that a small switch in the amino acid sequence in the Gi protein could convert it to a protein mediating a Gq coupled response has led to the development of robust, high throughput assays for this valuable receptor subtype.
The FLIPR-based HTS assay transducing the Gi signaling to the Gq pathway is described below.
pcDNA3hygroP2Y12 containing a hygromycin resistance gene and pLEC1-Gqi5-HA containing a neomycin resistance gene (licensed from Molecular Devices, Sunnyvale, Calif.) were co-transfected into Human embryonic kidney (HEK) 293 cells with SuperFect (Qiagen, Valencia, Calif.). Cell clones were selected in the presence of 600 μg/ml hygromycin B (Life Technologies, Carlsbad, Calif.) and 1 mg/ml of G418 (Mediatech, Herndon, Va.). Drug resistant colonies were picked and screened by FLIPR and the gene expression was further confirmed by RT-PCR. Positive clones were maintained in growth medium (DMEM supplemented with 10% FBS, 1×p/s) containing 400 μg/ml of G418 and 200 μg/ml of hygromycin.
The day before the assay, cells are seeded in clear, flat-bottom black-wall, tissue culture treated polystyrene 96- or 384-well plates and incubated at 37° C., 5% CO2. 50 μl of complete dye loading solution (FLIPR Calcium Assay Kit, Molecular Devices) was added to each well containing 100 μl of culture media. The cells were incubated for at least 30 min at 37° C., in 5% CO2 before initiating the assay on the FLIPR. The agonist effect of ADP was tested and EC50 was determined prior to compound testing. The EC60-70 dose was used.
The antagonist compounds were prepared at 4× and the agonists were diluted at 5× the concentration desired in the test wells, and then aliquoted into the sample plates. The sample plates and the cell plate were placed in the FLIPR assay chamber. A first addition (50 μl) was made at the start of reading and a second addition (50 μl) was made after 5 min of reading. Raw fluorescence data was exported for each well and tabulated versus time within an ASCII file. Data was then imported into Excel and the peak response over the basal level was determined. The percent inhibition for each compound was calculated by the change in fluorescent density as a % inhibition of the control ADP response to obtain an IC50, as shown in Table 1 (wherein N/A means Not Applicable).

T2 sequence (Q9H244 whole entry): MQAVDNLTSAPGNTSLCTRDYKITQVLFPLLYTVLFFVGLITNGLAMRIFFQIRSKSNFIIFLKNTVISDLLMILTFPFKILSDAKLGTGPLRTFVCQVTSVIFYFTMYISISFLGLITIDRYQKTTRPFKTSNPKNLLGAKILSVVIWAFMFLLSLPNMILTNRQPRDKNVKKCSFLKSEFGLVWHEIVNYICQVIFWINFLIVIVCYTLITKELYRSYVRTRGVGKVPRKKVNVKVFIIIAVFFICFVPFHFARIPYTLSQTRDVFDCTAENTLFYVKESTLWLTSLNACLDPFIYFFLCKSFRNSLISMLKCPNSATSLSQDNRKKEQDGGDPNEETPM
T1 sequence (Q9H244 whole entry): as above

IC50 [2]	IC50 [3]	Structure (SMILES)	IC50 [1]
5040 nM	2960 nM	CCCSc1nc(N[C@@H]2C[C@H]2c2ccccc2)c2nnn([C@H]3[C@H](O)[C@H](O)[C@@H](O)[C@H](O)[C@@H]3O)c2n1 (racemic) [Cpd 9, (1R,2R,4S,5S)-6-{7-[(1RS,2SR)-phenyl-cyclopropylamino]-5-propylsulfanyl-[1,2,3]triazolo[4,5-d]pyrimidin-3-yl}-cyclohexane-1,2,3,4,5-pentaol]	15 µM
–	> 30000 nM	CCCSc1nc(NCC2CCCN2CC)c2nnn([C@@H]3CC[C@H](O)[C@@H](O)[C@H]3O)c2n1 (stereo partly drawn) [Cpd 21, (1S,2R,3S,4R)-4-{7-[(1-ethyl-pyrrolidin-2-ylmethyl)-amino]-5-propylsulfanyl-[1,2,3]triazolo[4,5-d]pyrimidin-3-yl}-cyclohexane-1,2,3-triol]	> 30 µM
1490 nM	2200 nM	CCCSc1nc(N[C@@H]2C[C@H]2c2ccccc2)c2nnn([C@@H]3C=C[C@H](OCC(=O)O)[C@@H](O)[C@H]3O)c2n1 (mixture of isomers) [Cpd 11, [(1S,4R,5S,6S)-5,6-dihydroxy-4-{7-[(1RS,2SR)-2-phenyl-cyclopropylamino]-5-propylsulfanyl-[1,2,3]triazolo[4,5-d]pyrimidin-3-yl}-cyclohex-2-enyloxy]-acetic acid]	2.91 µM
9030 nM	2120 nM	CCCCNc1nc(SCCC)nc2c1nnn2[C@@H]1C=C[C@H](O)[C@@H](O)[C@H]1O [Cpd 1, (1S,2R,3S,6R)-6-(7-butylamino-5-propylsulfanyl-[1,2,3]triazolo[4,5-d]pyrimidin-3-yl)-cyclohex-4-ene-1,2,3-triol]	15.2 µM
2100 nM	745 nM	CCCSc1nc(N[C@@H]2C[C@H]2c2ccccc2)c2nnn([C@@H]3C=C[C@H](O)[C@@H](O)[C@H]3O)c2n1 (mixture of isomers) [Cpd 5, (1S,2R,3S,6R)-6-{7-[(1RS,2SR)-2-phenyl-cyclopropylamino]-5-propylsulfanyl-[1,2,3]triazolo[4,5-d]pyrimidin-3-yl}-cyclohex-4-ene-1,2,3-triol]	5.05 µM

Structure (SMILES)	IC50 [2]	IC50 [3]	IC50 [1]
CCCSc1nc(N[C@@H]2C[C@H]2c2ccccc2)c2nnn([C@@H]3CC[C@H](O)[C@@H](O)[C@H]3O)c2n1 (mixture of isomers) [Cpd 14, (1S,2R,3S,4R)-4-{7-[(1RS,2SR)-2-phenyl-cyclopropylamino]-5-propylsulfanyl-[1,2,3]triazolo[4,5-d]pyrimidin-3-yl}-cyclohexane-1,2,3-triol]	1350 nM	456 nM	3.1 µM
